Holding throughout (experiment): NCI anticancer screen, dose series, 48 h
Test [1] concerns BT-549 breast.
Test [2] concerns HS 578T breast.
The subject of test [3] is NCI-H226 lung.
The subject of test [4] is RXF 393 renal.
The subject of test [5] is SF-268 CNS.
The test system of test [6] is SNB-75 CNS.

SMILES strings stand for the structures.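 Results reflect a 48-hour exposure of cells in 96-well plates to compound at five concentrations. At the GI50, growth is halved. TGI: total growth inhibition.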

Turning to `COc1ccc(-c2nc3cc(Cl)c(Cl)cc3n2CC(=O)N=Nc2c(O)[nH]c3ccc(Br)cc23)cc1`, the GI50 in test [1] was 6.73 µM; in test [2], 2.05 µM; in test [3] it was 3.75 µM; in test [4], 1.87 µM; in test [5] it was 3.62 µM; in test [6], 2.11 µM. The TGI in test [1] was above 100 µM; in test [2], 5.72 µM; in test [3], above 100 µM; in test [4], 3.71 µM; in test [5], above 100 µM; in test [6], 12.4 µM.

(Values after PubChem BioAssay (NCI).)
